Patent publication EP0413433A1, “Isoindolyl-imidazole-derivatives and pharmaceutical compositions” (Beecham Group p.l.c., priority 1989, dated 1991)

Columns and labels:
[1] = system: post-junctional α₂-adrenoceptors; experiment: Post-junctional α₂-adrenoceptor antagonism: antagonism of noradrenaline contractions in ring segments of rabbit lateral saphenous vein; details: rabbit lateral saphenous vein rings, 37°C, Krebs medium
Experimental: To determine post-junctional α₂-adrenoceptor activity, ring segments of rabbit lateral saphenous vein were mounted in organ baths at 37 °C containing Krebs medium. Contractions of this tissue in response to noradrenaline are mediated via post-junctional α₂-adrenoceptors (Alabaster et al, 1985) and therefore the ability of α₂-adrenoceptor antagonists to pharmacologically antagonise such contractions gives a quantitive measure of the activity of compounds for this receptor subtype.

[2] = system: post-junctional α₁-adrenoceptors; experiment: Post-junctional α₁-adrenoceptor agonism: contraction of rings of rabbit aorta in comparison with noradrenaline; details: agonist contraction in comparison with noradrenaline
Experimental: Post-junctional α₁ activity was determined using a method similar to that for post-junctional α₂ activity, but using rings of rabbit aorta. Contractions of this tissue are mediated by post-junctional α₁-adrenoceptors (Docherty et al. 1981), and so the pD2 and intrinsic activity (IA) of α₁-adrenoceptor agonists were calculated from their ability to contract the rings of aorta in comparison with noradrenaline.

[3] = target: T1, α2-Adrenoceptor (Homo sapiens, UniProt P08913); experiment: α2-Adrenoceptor binding: [³H] Rauwolscine displacement on human platelet membranes; details: [³H] Rauwolscine (0.5-1.0 nM), 30 minutes at 30°C, Cheng Prussoff equation, read-out: Binding Affinity. Ki
T1 construct: Rauwolscine; from tissue; host or cells: human platelet membranes
T1 sequence (P08913 1-465): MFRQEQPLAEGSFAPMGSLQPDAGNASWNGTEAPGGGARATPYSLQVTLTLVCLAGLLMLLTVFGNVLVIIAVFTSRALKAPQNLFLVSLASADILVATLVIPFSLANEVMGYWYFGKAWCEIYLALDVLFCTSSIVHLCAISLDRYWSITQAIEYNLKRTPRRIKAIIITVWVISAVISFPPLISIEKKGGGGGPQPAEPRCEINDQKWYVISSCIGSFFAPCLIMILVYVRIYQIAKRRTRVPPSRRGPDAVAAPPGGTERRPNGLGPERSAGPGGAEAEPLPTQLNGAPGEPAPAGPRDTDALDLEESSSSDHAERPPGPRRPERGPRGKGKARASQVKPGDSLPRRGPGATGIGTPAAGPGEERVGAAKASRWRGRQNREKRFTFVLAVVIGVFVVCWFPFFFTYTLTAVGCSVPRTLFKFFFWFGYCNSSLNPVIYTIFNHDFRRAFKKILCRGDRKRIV
Experimental: Human platelet membranes were incubated with [³H] Rauwolscine (0.5-1.0 nM) for 30 minutes at 30 °C with varying concentrates of the drug (0.1-10,000 nM). The binding assay was stopped by filtering and rinsing on GF/B glass fibre filters.
Binding Affinity (Ki) was calculated using the Cheng Prussoff equation.

C[C@@H]1c2ccccc2CN1CC1=NCCN1 [Example 1, (R)-2-[(4,5-Dihydro-1H-imidazol-2-yl)methyl]-2,3-dihydro-1-methyl-1H-isoindole]
Post-synaptic PA₂ [1]: 7.3
Post-synaptic pD₂ [2]: <4
Ki [3]: 0.3 nM
